Blank lines part the entries; values can stand above or below the compound they belong to.
Molecular target: T1, recombinant human 15-PGDH (Homo sapiens, UniProt P15428)
T1 construct: purchased R&D Systems
T1 sequence (P15428 1-266): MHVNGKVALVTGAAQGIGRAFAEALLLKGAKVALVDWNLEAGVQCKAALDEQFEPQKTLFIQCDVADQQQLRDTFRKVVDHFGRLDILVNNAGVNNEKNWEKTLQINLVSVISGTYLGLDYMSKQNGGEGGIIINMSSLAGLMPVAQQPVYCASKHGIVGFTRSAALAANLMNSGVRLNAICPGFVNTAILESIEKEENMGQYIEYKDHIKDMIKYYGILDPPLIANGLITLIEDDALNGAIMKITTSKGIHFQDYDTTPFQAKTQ
Assay: 15-PGDH enzyme inhibition test
Type: biochemical
Details: 4 nM recombinant human 15-PGDH, 30 μM PGE2, 1 mM NAD+, 60 minutes after starting the reaction; read-out: IC50 Value
Method in brief: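 Fluorescence (excitation 340 nm, emission 440 nm) measured 60 min after adding 1 mM NAD+ and 30 μM PGE2 to 4 nM recombinant human 15-PGDH, which had stood 12 min at room temperature with compound in pH 8.0 Tris-HCl buffer. Concentration-response curves yield IC50, binned into potency categories.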

SMILES: Cn1nc2cc(N3CCOc4cc(C(=O)N5CCC[C@H]5C(N)=O)cnc43)ccn2c1=O [Example 36-1, (S)-1-(4-(2-Methyl-3-oxo-2,3-dihydro-[1,2,4]triazolo[4,3-a]pyridin-7-yl)-3,4-dihydro-2H-pyrido[3,2-b][1,4]oxazine-7-carbonyl)pyrrolidine-2-carboxamide]
IC50: > 100 nM

SMILES: O=C(O)c1ccc(N2CCOc3cc(C(=O)N4CCC(F)(F)CC4)ccc32)cc1 [Example 2-35]
IC50: < 10 nM

SMILES: O=C(c1cnc2c(c1)OCCN2c1ccn2cnnc2c1)N1CCCCC1 [Example 1-105]
IC50: < 10 nM

SMILES: CCn1nc2cc(N3CCCc4cc(C(=O)N5CCC[C@H](CF)C5)cnc43)ccn2c1=O [Example 1-113]
IC50: < 10 nM

SMILES: O=C(c1cnc2c(c1)OCCN2c1ccn2c(=O)n(Cc3ccc(F)cc3)nc2c1)N1CCC(F)(F)CC1 [Example 27-4]
IC50: < 10 nM

SMILES: COc1cc(N2CCOc3cc(C(=O)N4CCCCC4)cnc32)ccc1C(=O)O [Example 4-15]
IC50: 10 to 100 nM

SMILES: O=C(O)c1ccc(N2CCOc3cc(C(=O)N4CCCCC4)sc32)cc1 [Example 4-12]
IC50: < 10 nM

SMILES: Cn1nc2cc(N3CCOc4cc(C(=O)N5CCC[C@H](CF)C5)cnc43)ccn2c1=O [Example 8-65]
IC50: < 10 nM

SMILES: O=C(c1cnc2c(c1)OCCN2c1ccn2c(=O)n(CC(F)(F)F)nc2c1)N1CCC(F)(F)CC1 [Example 27-8]
IC50: < 10 nM

SMILES: CN1CCN(C(=O)c2cnc3c(c2)OCCN3c2ccc3c(c2)CN(C)C3=O)CC1 [Example 8-189]
IC50: < 10 nM

SMILES: CN1CCN(C(=O)c2cnc3c(c2)CCCN3c2ccn3c(=O)n(C)nc3c2)CC1 [Example 8-127]
IC50: 10 to 100 nM

SMILES: Cn1nc2cc(N3CCOc4cc(C(=O)N5CCCCC5)cnc43)ccn2c1=O [Example 1-21]
IC50: < 10 nM

SMILES: O=C(c1cnc2c(c1)OCCN2c1ccn2nnnc2c1)N1CCCCC1 [Example 1-104]
IC50: < 10 nM

SMILES: CC(O)CCN(C)C(=O)c1cnc2c(c1)OCCN2c1ccn2c(=O)n(C)nc2c1 (stereo not drawn) [Example 8-181]
IC50: 10 to 100 nM

SMILES: O=C(c1cnc2c(c1)OCCN2c1ccn2c(=O)n(Cc3ccc(F)cc3)nc2c1)N1CCCCC1 [Example 27-1]
IC50: < 10 nM

SMILES: Cn1nc2cc(N3CCOc4cc(C(O)C5CCC(F)(F)CC5)cnc43)ccn2c1=O (stereo not drawn) [Example 19-2]
IC50: 10 to 100 nM

SMILES: CCN1Cc2cc(N3CCCc4cc(C(=O)N5CCCC[C@H]5C)cnc43)ccc2C1=O [Example 8-78]
IC50: < 10 nM

SMILES: CCOCn1nc2cc(N3CCCc4cc(C(=O)N5CCC(F)(F)CC5)cnc43)ccn2c1=O [Example 1-77]
IC50: < 10 nM

SMILES: CNC(=O)c1ccc(N2CCCc3cc(C(=O)N4CCCCC4)cnc32)cn1 [Example 1-210]
IC50: < 10 nM

SMILES: COCn1nc2cc(N3CCCc4cc(C(=O)N5CC[C@H](C)C5)cnc43)ccn2c1=O [Example 8-120]
IC50: < 10 nM

SMILES: CS(=O)(=O)c1ccc(N2CCOc3cc(C(=O)N4CCCCC4)cnc32)cc1 [Example 1-240]
IC50: 10 to 100 nM

SMILES: CCCn1nc2cc(N3CCCc4cc(C(=O)N5CCCCC5)cnc43)ccn2c1=O [Example 1-202]
IC50: < 10 nM

SMILES: CCN1Cc2cc(N3CCCc4cc(C(=O)N5CCC(F)(F)CC5)cnc43)ccc2C1=O [Example 1-126]
IC50: < 10 nM

SMILES: CCN1Cc2cc(N3CCCc4cc(C(=O)N5Cc6ccccc6C5)cnc43)ccc2C1=O [Example 8-77]
IC50: < 10 nM

SMILES: O=C(c1cnc2c(c1)OCCN2c1ccc2c(=O)[nH]ccc2c1)N1CCC(F)(F)CC1 [Example 1-128]
IC50: < 10 nM

SMILES: CN1C(=O)c2ccc(N3CCOc4cc(C(=O)N5CCCCC5)cnc43)cc2C1=O [Example 1-166]
IC50: < 10 nM

SMILES: Cn1nc2cc(N3CC(C)(C)Oc4cc(C(=O)N5CCCCC5)cnc43)ccn2c1=O [Example 1-93]
IC50: < 10 nM

SMILES: COCCOCCn1nc2cc(N3CCCc4cc(C(=O)N5CCC[C@@H](CF)C5)cnc43)ccn2c1=O [Example 1-125]
IC50: < 10 nM

SMILES: Cn1nc2cc(N3CCc4cc(C(=O)N5CCCCC5)cnc43)ccn2c1=O [Example 1-109]
IC50: < 10 nM

SMILES: O=C(O)c1ccc(N2CCOc3cc(C(=O)N4CCCCC4)ccc32)cc1 [Example 2-7]
IC50: < 10 nM

SMILES: O=C(c1cnc2c(c1)CCCN2c1ccn2c(=O)[nH]nc2c1)N1CCC[C@@H](CF)C1 [Example 1-146]
IC50: < 10 nM

SMILES: Cn1ncc2cc(N3CCCc4cc(C(=O)N5CCCCC5)cnc43)cnc2c1=O [Example 1-194]
IC50: < 10 nM

SMILES: CO[C@@H]1CCCN(C(=O)c2cnc3c(c2)OCCN3c2ccn3c(=O)n(C)nc3c2)C1 [Example 18-1, (R)-7-(7-(3-Methoxypiperidine-1-carbonyl)-2,3-dihydro-4H-pyrido[3,2-b] [1,4]oxazin-4-yl)-2-methyl-[1,2,4]triazolo[4,3-a]pyridin-3(2H)-one]
IC50: < 10 nM

SMILES: CN(C)C1CCCN(C(=O)c2cnc3c(c2)OCCN3c2ccn3c(=O)n(C)nc3c2)C1 (stereo not drawn) [Example 33-1, 7-(7-(3-(Dimethylamino)piperidine-1-carbonyl)-2,3-dihydro-4H-pyrido[3,2-b] [1,4]oxazin-4-yl)-2-methyl-[1,2,4]triazolo[4,3-a]pyridin-3(2H)-one]
IC50: > 100 nM

SMILES: CCn1nc2cc(N3CCCc4cc(C(=O)N5CCCC5)cnc43)ccn2c1=O [Example 8-148]
IC50: < 10 nM

SMILES: CC(C)(C)OC(=O)c1ccc(N2CCOc3cc(C(=O)N4CCC[C@@H](F)C4)cnc32)cc1 [Example 8-7]
IC50: 10 to 100 nM

SMILES: C[C@@H]1CCN(C(=O)c2cnc3c(c2)OCCN3c2ccn3c(=O)n(C)nc3c2)C1 [Example 8-32]
IC50: < 10 nM

SMILES: COC(=O)c1ccccc1N1CCOc2cc(C(=O)N3CCCCC3)cnc21 [Example 1-263]
IC50: > 100 nM

SMILES: Cn1nc2cc(N3CCOc4cc(C(=O)NCCCCO)cnc43)ccn2c1=O [Example 8-176]
IC50: 10 to 100 nM

SMILES: CN1Cc2cc(N3CCOc4cc(C(=O)N5CCCCCCC5)cnc43)ccc2C1=O [Example 8-187]
IC50: < 10 nM

SMILES: CCn1nc2cc(N3CCCc4cc(C(=O)N5CCC5)cnc43)ccn2c1=O [Example 8-147]
IC50: < 10 nM

SMILES: Cn1nc2cc(N3CCCc4cc(C(=O)N5CCC[C@H](F)C5)cnc43)ccn2c1=O [Example 8-138]
IC50: < 10 nM

SMILES: O=C(c1cnc2c(c1)OCCN2c1ccccc1)N1CCCCC1 [Example 1-232]
IC50: 10 to 100 nM

SMILES: CNC(=O)c1cc2ccc(N3CCOc4cc(C(=O)N5CCCCC5)cnc43)cc2n1C [Example 6-11]
IC50: 10 to 100 nM

SMILES: COCCn1nc2cc(N3CCCc4cc(C(=O)N5CCC[C@H](CF)C5)cnc43)ccn2c1=O [Example 1-116]
IC50: < 10 nM

Now from value to compound:

IC50: < 10 nM
SMILES: C[C@@H]1CCCN(C(=O)c2cnc3c(c2)OCCCN3c2ccn3c(=O)n(C)nc3c2)C1 [Example 8-60]

IC50: < 10 nM
SMILES: O=C(c1cnc2c(c1)CCCN2c1ccc(-c2nn[nH]n2)cc1)N1CCCCC1 [Example 14-7]

IC50: < 10 nM
SMILES: O=C(O)c1cccc(N2CCOc3cc(C(=O)N4CCCCC4)ccc32)c1 [Example 2-31]

IC50: < 10 nM
SMILES: Cn1ccc2cc(N3CCCc4cc(C(=O)N5CCCCC5)cnc43)ccc2c1=O [Example 1-174]

IC50: < 10 nM
SMILES: CN1CCN(c2ccn3c(=O)n(C)nc3c2)c2ncc(C(=O)N3CCCCC3)cc21 [Example 29-1, 2-Methyl-7-(l-methyl-7-(piperidine-1-carbonyl)-2,3-dihydropyrido[2,3-b]pyrazin-4(1H)-yl)-[1,2,4]triazolo[4,3-a]pyridin-3(2H)-one]

IC50: < 10 nM
SMILES: Cn1nc2cc(N3CCCc4cc(C(=O)N5CCCCCC5)cnc43)ccn2c1=O [Example 8-124]

IC50: < 10 nM
SMILES: NC(=O)c1ccc(N2CCOc3cc(C(=O)N4CCCCC4)cnc32)cc1 [Example 6-17]

IC50: 10 to 100 nM
SMILES: Cn1nc2cc(N3CCOc4cc(C(=O)NCCCO)cnc43)ccn2c1=O [Example 8-174]

IC50: 10 to 100 nM
SMILES: Cn1nc2cc(N3CCCc4cc(C(=O)N5CCC[C@@H](C(F)(F)F)C5)cnc43)ccn2c1=O [Example 8-145]

IC50: 10 to 100 nM
SMILES: O=C(O)c1ccc(N2CCS(=O)(=O)c3cc(C(=O)N4CCCCC4)ccc32)cc1 [Example 2-17]

IC50: < 10 nM
SMILES: CCN1Cc2cc(N3CCCc4cc(C(=O)N5CCC[C@@H](C(F)(F)F)C5)cnc43)ccc2C1=O [Example 8-87]

IC50: < 10 nM
SMILES: O=C(O)c1ccc(N2CCOc3cc(C(=O)N4CC=CCC4)cnc32)cc1 [Example 4-9]

IC50: < 10 nM
SMILES: CC(C)(O)c1ccc(N2CCOc3c2ccc(C(=O)N2CCCCC2)c3Cl)cc1 [Example 10-2]

IC50: < 10 nM
SMILES: O=C(O)c1ccc(N2CCCc3cc(C(=O)N4CCCCC4)cnc32)cc1 [Example 2-34]

IC50: < 10 nM
SMILES: COC(=O)c1ccc(N2CCCc3cc(C(=O)N4CCCCC4)cnc32)cc1 [Example 1-205]

IC50: < 10 nM
SMILES: O=C(c1cnc2c(c1)CCCN2c1ccn2c(=O)[nH]nc2c1)N1CCCCC1 [Example 1-171]

IC50: < 10 nM
SMILES: O=C(c1cnc2c(c1)OCCN2c1ccc2c(=O)[nH]oc2c1)N1CCCCC1 [Example 14-1]

IC50: < 10 nM
SMILES: CCn1nc2cc(N3CCCc4cc(C(=O)N5CCC[C@H](C(F)F)C5)cnc43)ccn2c1=O [Example 8-168]

IC50: 10 to 100 nM
SMILES: COc1cc(N2CCOc3cc(C(=O)N4CCCCC4)cnc32)ccc1S(C)(=O)=O [Example 1-255]

IC50: < 10 nM
SMILES: C[C@H]1COc2cc(C(=O)N3CCCCC3)ccc2N(c2ccc(C(=O)O)cc2)C1 [Example 2-10]

IC50: < 10 nM
SMILES: CN1Cc2cc(N3CCCc4cc(C(=O)N5CCCCC5)cnc43)cnc2C1=O [Example 1-67]

IC50: < 10 nM
SMILES: O=C(O)c1ccc(N2CCOc3cc(C(=O)N4CCCCC4)cnc32)cc1Cl [Example 4-17]

IC50: < 10 nM
SMILES: CN1Cc2cc(N3CCCc4cc(C(=O)N5CCC(F)(F)CC5)cnc43)ccc2C1=O [Example 1-81]

IC50: > 100 nM
SMILES: O=C(c1cnc2c(c1)OCCN2c1ccccn1)N1CCCCC1 [Example 1-235]
